Four compounds from patent US20260226036A1, “THIOUREA ANTIO[…] NEURO[…]” (priority 2023, published 2026) can be followed below.

One data set has as its system SW mice. In words: Cocaine-conditioned locomotion, expression test. It is filed as in vivo, mouse. To be noted: Paired mice, cocaine 15 mg/kg 24 h earlier; 10 mg/kg prior to testing. The method, then:
The goal of this pilot study was to determine if the novel small molecule was effective in preventing cocaine-conditioned motor activity of SW mice. […] Cocaine results in enhanced locomotor activity in mice. Mice that were previously injected with 15 mg/kg cocaine, either in their home cages (Unpaired) or in the novel test environment (Paired), were tested 24 h later.

The next data set concerns mouse model of CPP. In words: Mouse model of CPP. It is filed as in vivo.
Data set [1] can be described thus: Neuroprotection MTT assay in SHSY5Y cells. It is filed as cell-based, human. To be noted: insult agent alone, HT22 or SHSY5Y cells, not told apart, read-out: cell proliferation (viable cells, MTT); for viability: 24 h. From the text: MTT assay was used for measuring viable cells at absorbance of 490 nm. […] (FIGS. 5C-5D).
On the technique in general: Formazan colour is commonly taken as a measure of viable cells.

In a further data set the test system is IL-1β cytokine. In words: IL-1β cytokine ELISA of SHSY-5Y supernatants. It is filed as cell-based, human. The settings on record: cocaine 1.5 mM or METH 3.5 mM alone; 24 h. The method, then:
Supernatants were collected and the IL-1β cytokine concentration was assessed using ELISA kit and following manufacturer instruction (RayBiotech). […] N=3, p<0.05; p<0.01, One-way ANOVA, GraphPad Prism.
(In an ELISA, binding on a coated surface is turned into a signal by an enzyme label.)

Another data set deals with methionine synthase (MS). As to the kind of experiment: Intracellular methionine synthase ELISA of SH-SY5Y cell lysate. It is filed as cell-based, human. To be noted: cocaine 1.5 mM alone; 24 hours; FIG. 6B. The method, then:
Cell lysates were collected and quantified with Pierce™ BCA Protein Assay. Level of intracellular methionine synthase (MS) were assessed using ELISA of the cell lysate.

Another data set has as its system catalase (CAT). As to the kind of experiment: Catalase ELISA in SH-SY5Y cells. It is filed as cell-based, human. The settings on record: cocaine 1.5 mM alone; 24 hours. The method, then:
Cell lysates were collected and quantified with Pierce™ BCA Protein Assay. Level of intracellular SOD, catalase, glutathione peroxidase and total antioxidant concentration were assessed using ELISA kits.

In the case of `CNC(=S)NC` [DMTU, dimethyl thiourea], the “expression of increased (cocaine-conditioned) locomotor activity” value in the data set with SW mice is recorded as “effective”. Moreover, the “bioactivity in the mouse model of CPP” value in the data set with mouse model of CPP (5 mg/kg) and in the data set on mouse model of CPP (10 mg/kg) was “potent bioactivity” in each case.
Take `CC(C)(C)OO` [TBHP, t-butyl hydrogen peroxide]: in data set [1], the viability at 24 h was roughly 50%.
As to `CN[C@@H](C)Cc1ccccc1` [METH, methamphetamine], the IL-1β result in the data set with IL-1β cytokine is “trend in increase”. The viability in data set [1] was roughly 50%.
Turning to `COC(=O)[C@H]1[C@@H](OC(=O)c2ccccc2)C[C@@H]2CC[C@H]1N2C` [cocaine], the “effect on MS” value with methionine synthase (MS) is listed as “no significant effect”. For the same compound, in data set [1], the viability is roughly 50%. The CAT activity result in the data set with catalase (CAT) was “no significant effect”.
